Measurements: paper PMC9459959, “Synthesis and Activity of 2-Acyl-cyclohexane-1,3-dione Congeners Derived from Peperomia Natural Products against the Plant p-Hydroxyphenylpyruvate Dioxygenase Herbicidal Molecular Target Site” (Plants, 2022)
Read-outs that look alike come from different tables or passages of the source.

Molecular target: T1, HPPD (p-hydroxyphenylpyruvate dioxygenase) (Arabidopsis thaliana, UniProt P93836)
T1 construct: gene HPD; recombinant, overexpressed in E. coli, tested in total soluble protein extract; 1SP9 given only as docking structure
T1 sequence (P93836 1-445): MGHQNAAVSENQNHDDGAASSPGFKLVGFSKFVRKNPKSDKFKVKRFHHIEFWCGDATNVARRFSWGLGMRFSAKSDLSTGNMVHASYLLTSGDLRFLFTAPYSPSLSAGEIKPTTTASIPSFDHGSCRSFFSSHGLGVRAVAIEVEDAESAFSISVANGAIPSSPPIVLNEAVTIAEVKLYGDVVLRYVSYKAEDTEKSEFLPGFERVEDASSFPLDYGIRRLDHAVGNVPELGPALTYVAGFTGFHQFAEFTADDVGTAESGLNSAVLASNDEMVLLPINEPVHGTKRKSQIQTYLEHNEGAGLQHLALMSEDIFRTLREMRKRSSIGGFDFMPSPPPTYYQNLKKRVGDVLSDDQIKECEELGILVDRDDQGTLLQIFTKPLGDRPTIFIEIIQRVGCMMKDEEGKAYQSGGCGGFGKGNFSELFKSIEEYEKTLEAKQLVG
Assay: HPLC of homogentisate formed ([…] nm), dose-response
Type: biochemical

Cc1noc2c1C(=O)CCC2 [1a]
IC50 (read-out: I50 (μM) ^ab): > 100 µM

CC(=O)C1C(=O)CCCC1=O [1b]
IC50 (read-out: I50 (μM) ^ab): 23.1 ± 4.34 µM

Cc1noc2c1C(=O)C(O)CC2 (stereo not shown) [1c]
IC50 (read-out: I50 (μM) ^ab): > 100 µM

CC(=O)C1=C(O)C(O)CCC1=O (stereo not shown) [1d]
IC50 (read-out: I50 (μM) ^ab): > 1000 µM

Cc1noc2c1C(=O)CC(C)(C)C2 [1e]
IC50 (read-out: I50 (μM) ^ab): > 100 µM

CC(=O)C1C(=O)CC(C)(C)CC1=O [1f]
IC50 (read-out: I50 (μM) ^ab): 53.1 ± 17.1 µM

Cc1noc2c1C(=O)C(O)C(C)(C)C2 (stereo not shown) [1g]
IC50 (read-out: I50 (μM) ^ab): > 100 µM

CC(=O)C1=C(O)C(O)C(C)(C)CC1=O (stereo not shown) [1h]
IC50 (read-out: I50 (μM) ^ab): 166 ± 19.7 µM

CCCC(=O)C1C(=O)CCCC1=O [2a]
IC50 (read-out: I50 (μM) ^ab): 35.1 ± 6.24 µM

CCCC(=O)C1C(=O)CC(C)(C)CC1=O [2b]
IC50 (read-out: I50 (μM) ^ab): 16.6 ± 4.36 µM

CCCCCc1noc2c1C(=O)CCC2 [3a]
IC50 (read-out: I50 (μM) ^ab): > 100 µM

CCCCCC(=O)C1C(=O)CCCC1=O [3b]
IC50 (read-out: I50 (μM) ^ab): 2.93 ± 0.47 µM

CCCCCc1noc2c1C(=O)C(O)CC2 (stereo not shown) [3c]
IC50 (read-out: I50 (μM) ^ab): > 100 µM

CCCCCC(=O)C1=C(O)C(O)CCC1=O (stereo not shown) [3d]
IC50 (read-out: I50 (μM) ^ab): 15.8 ± 4.9 µM

CCCCCC(=O)C1C(=O)CC(C)(C)CC1=O [3e]
IC50 (read-out: I50 (μM) ^ab): 4.17 ± 0.45 µM

CCCCCCCCCc1noc2c1C(=O)CCC2 [4a]
IC50 (read-out: I50 (μM) ^ab): > 100 µM

CCCCCCCCCC(=O)C1C(=O)CCCC1=O [4b]
IC50 (read-out: I50 (μM) ^ab): 0.46 ± 0.06 µM

CCCCCCCCCc1noc2c1C(=O)C(O)CC2 (stereo not shown) [4c]
IC50 (read-out: I50 (μM) ^ab): > 100 µM

CCCCCCCCCC(=O)C1=C(O)C(O)CCC1=O (stereo not shown) [4d]
IC50 (read-out: I50 (μM) ^ab): 1.25 ± 0.4 µM

CCCCCCCCCC(=O)C1C(=O)CC(C)(C)CC1=O [4e]
IC50 (read-out: I50 (μM) ^ab): 2.66 ± 0.95 µM

CCCCCCCCCCCc1noc2c1C(=O)CCC2 [5a]
IC50 (read-out: I50 (μM) ^ab): > 100 µM

CCCCCCCCCCCC(=O)C1C(=O)CCCC1=O [5b]
IC50 (read-out: I50 (μM) ^ab): 0.3 ± 0.03 µM

CCCCCCCCCCCc1noc2c1C(=O)C(O)CC2 (stereo not shown) [5c]
IC50 (read-out: I50 (μM) ^ab): > 100 µM

CCCCCCCCCCCC(=O)C1=C(O)C(O)CCC1=O (stereo not shown) [5d]
IC50 (read-out: I50 (μM) ^ab): 0.18 ± 0.02 µM

CCCCCCCCCCCc1noc2c1C(=O)CC(C)(C)C2 [5e]
IC50 (read-out: I50 (μM) ^ab): > 100 µM

CCCCCCCCCCCC(=O)C1C(=O)CC(C)(C)CC1=O [5f]
IC50 (read-out: I50 (μM) ^ab): 0.77 ± 0.11 µM

CCCCCCCCCCCc1noc2c1C(=O)C(O)C(C)(C)C2 (stereo not shown) [5g]
IC50 (read-out: I50 (μM) ^ab): > 100 µM

CCCCCCCCCCCCCCCCC(=O)C1C(=O)CCCC1=O [6a]
IC50 (read-out: I50 (μM) ^ab): 1.58 ± 0.2 µM

CCCCCCCCCCCCCCCCC(=O)C1C(=O)CC(C)(C)CC1=O [6b]
IC50 (read-out: I50 (μM) ^ab): 1.7 ± 0.31 µM

CC(=O)CCCC(=O)C1C(=O)CCCC1=O [7a]
IC50 (read-out: I50 (μM) ^ab): 9.6 ± 1.4 µM

CC(=O)CCCC(=O)C1C(=O)CC(C)(C)CC1=O [7b]
IC50 (read-out: I50 (μM) ^ab): 17.2 ± 2.6 µM

O=C(C=Cc1ccccc1)C1C(=O)CCCC1=O [8a]
IC50 (read-out: I50 (μM) ^ab): 5.43 ± 0.58 µM

O=C1CCCC(=O)C1C(=O)CCc1ccccc1 [8b]
IC50 (read-out: I50 (μM) ^ab): 1.27 ± 0.09 µM

O=C(/C=C/c1ccccc1)C1=C(O)C(O)CCC1=O (stereo not shown) [8c]
IC50 (read-out: I50 (μM) ^ab): 59 ± 3.16 µM

CC1(C)CC(=O)C(C(=O)C=Cc2ccccc2)C(=O)C1 [8d]
IC50 (read-out: I50 (μM) ^ab): 58.6 ± 8.67 µM

CC1(C)CC(=O)C(C(=O)CCc2ccccc2)C(=O)C1 [8e]
IC50 (read-out: I50 (μM) ^ab): 2.17 ± 0.37 µM

Cc1ccccc1C=CC(=O)C1C(=O)CCCC1=O [9a]
IC50 (read-out: I50 (μM) ^ab): 1.2 ± 0.14 µM

Cc1ccccc1CCC(=O)C1C(=O)CCCC1=O [9b]
IC50 (read-out: I50 (μM) ^ab): 0.97 ± 0.09 µM

Cc1ccccc1C=CC(=O)C1C(=O)CC(C)(C)CC1=O [9c]
IC50 (read-out: I50 (μM) ^ab): 28.7 ± 8.7 µM

COc1cccc(C=CC(=O)C2C(=O)CCCC2=O)c1 [10a]
IC50 (read-out: I50 (μM) ^ab): 0.89 ± 0.1 µM

COc1cccc(CCC(=O)C2C(=O)CCCC2=O)c1 [10b]
IC50 (read-out: I50 (μM) ^ab): 0.31 ± 0.04 µM

COc1cccc(C=CC(=O)C2C(=O)CC(C)(C)CC2=O)c1 [10c]
IC50 (read-out: I50 (μM) ^ab): 6.4 ± 1.2 µM

COc1cccc(CCC(=O)C2C(=O)CC(C)(C)CC2=O)c1 [10d]
IC50 (read-out: I50 (μM) ^ab): 1.5 ± 0.17 µM

COc1ccc(C=CC(=O)C2C(=O)CCCC2=O)cc1 [11a]
IC50 (read-out: I50 (μM) ^ab): 12.3 ± 1.6 µM

COc1ccc(CCC(=O)C2C(=O)CCCC2=O)cc1 [11b]
IC50 (read-out: I50 (μM) ^ab): 2.36 ± 0.3 µM

COc1ccc(CCC(=O)C2=C(O)C(O)CCC2=O)cc1 (stereo not shown) [11c]
IC50 (read-out: I50 (μM) ^ab): 59.5 ± 11.8 µM

COc1ccc(C=CC(=O)C2C(=O)CC(C)(C)CC2=O)cc1 [11d]
IC50 (read-out: I50 (μM) ^ab): 141 ± 27 µM

COc1ccc(CCC(=O)C2C(=O)CC(C)(C)CC2=O)cc1 [11e]
IC50 (read-out: I50 (μM) ^ab): 12.9 ± 2.18 µM

COc1ccc(C=CC(=O)C2C(=O)CCCC2=O)cc1OC [12a]
IC50 (read-out: I50 (μM) ^ab): 9.16 ± 1.21 µM

COc1ccc(CCC(=O)C2C(=O)CCCC2=O)cc1OC [12b]
IC50 (read-out: I50 (μM) ^ab): 1.35 ± 0.18 µM

COc1ccc(C=CC(=O)C2C(=O)CC(C)(C)CC2=O)cc1OC [12c]
IC50 (read-out: I50 (μM) ^ab): 14.1 ± 2.21 µM

COc1ccc(CCC(=O)C2C(=O)CC(C)(C)CC2=O)cc1OC [12d]
IC50 (read-out: I50 (μM) ^ab): 8.69 ± 1.32 µM

COc1cc(C=CC(=O)C2C(=O)CCCC2=O)cc(OC)c1OC [14a]
IC50 (read-out: I50 (μM) ^ab): 2.06 ± 0.13 µM

COc1cc(C=CC(=O)C2C(=O)CC(C)(C)CC2=O)cc(OC)c1OC [14c]
IC50 (read-out: I50 (μM) ^ab): 2.22 ± 0.5 µM

COc1cc(CCC(=O)C2C(=O)CC(C)(C)CC2=O)cc(OC)c1OC [14d]
IC50 (read-out: I50 (μM) ^ab): 2.29 ± 0.25 µM

CN(C)c1ccc(CCC(=O)C2C(=O)CCCC2=O)cc1 [15b]
IC50 (read-out: I50 (μM) ^ab): 4.47 ± 0.51 µM

CN(C)c1ccc(CCC(=O)C2C(=O)CC(C)(C)CC2=O)cc1 [15d]
IC50 (read-out: I50 (μM) ^ab): 3.46 ± 0.64 µM

O=C1CCCC(=O)C1C(=O)CCc1ccc(Cl)cc1 [16b]
IC50 (read-out: I50 (μM) ^ab): 0.24 ± 0.02 µM

CC1(C)CC(=O)C(C(=O)CCc2ccc(Cl)cc2)C(=O)C1 [16d]
IC50 (read-out: I50 (μM) ^ab): 2.05 ± 0.19 µM

O=C(C=Cc1ccc(Br)cc1)C1C(=O)CCCC1=O [17a]
IC50 (read-out: I50 (μM) ^ab): 7.55 ± 0.93 µM

O=C(/C=C/c1ccc(Br)cc1)C1=C(O)C(O)CCC1=O (stereo not shown) [17b]
IC50 (read-out: I50 (μM) ^ab): 28.7 ± 4.82 µM

CC1(C)CC(=O)C(C(=O)C=Cc2ccc(Br)cc2)C(=O)C1 [17c]
IC50 (read-out: I50 (μM) ^ab): 8.34 ± 1.57 µM

O=C(C=Cc1cccc(Br)c1)C1C(=O)CCCC1=O [18a]
IC50 (read-out: I50 (μM) ^ab): 0.82 ± 0.08 µM

CC1(C)CC(=O)C(C(=O)C=Cc2cccc(Br)c2)C(=O)C1 [18b]
IC50 (read-out: I50 (μM) ^ab): 2.42 ± 0.25 µM

O=C(C=Cc1ccc([N+](=O)[O-])cc1)C1C(=O)CCCC1=O [19a]
IC50 (read-out: I50 (μM) ^ab): 7.61 ± 0.89 µM

CC1(C)CC(=O)C(C(=O)C=Cc2ccc([N+](=O)[O-])cc2)C(=O)C1 [19b]
IC50 (read-out: I50 (μM) ^ab): 27.5 ± 2.39 µM

CS(=O)(=O)c1ccc(C(=O)C2C(=O)CCCC2=O)c(Cl)c1 [sulcotrione, reference compound]
IC50 (15 min incubation, slow tight-binding class, E. coli total soluble protein extract, positive control, read-out: I50app): 0.25 ± 0.02 µM
